Consider three molecules from ChEMBL document CHEMBL1121735, “Synthesis and adrenoceptor affinity of some highly polar beta-substituted catecholamines” (J Med Chem, 1981).

The structures appear in SMILES notation.

One assay addresses Adrenergic receptor beta (Rattus norvegicus, UniProt P18090+P10608+P26255). The assay can be described thus: Binding affinity against Beta adrenergic receptor using [3H]dihydroalprenolol radioligand in rat brain homogenate. The class given is tissue-based.
Assay [1] concerns the target Adrenergic receptor alpha. The assay can be described thus: Binding affinity against Alpha adrenergic receptor using [3H]dihydroergocryptine radioligand in rat brain homogenate. The class given is tissue-based.

Turning to `CNCC(c1ccc(O)c(O)c1)S(=O)(=O)O` (racemic), the IC50 is 0.00011 M l-1 at Adrenergic receptor beta and 0.00001 M l-1 in assay [1].
The like results for `NCC(c1ccc(O)c(O)c1)S(=O)(=O)O` (racemic) were, in that order, 0.00013 M l-1 and 3.6e-6 M l-1.
The like results for `CC(C)NCC(c1ccc(O)c(O)c1)S(=O)(=O)O` (racemic) were, in that order, 9.1e-6 M l-1 and 0.000033 M l-1.
